# Like-named read-outs stand apart in the source and are kept apart here.
# What was measured:
# [1] = system: Streptococcus faecalis P-2473; assay: In vitro antibacterial activity (MIC), Streptococcus faecalis P-2473; format: cell-based; conditions: Enterococcus faecalis, P2473; Streptococcus faecalis P-2473; read-out: minimum inhibitory concentration (MIC)
# Text: (§1) (MIC) (μg/ml) Method; Chemotherapy, 22(6), 1126 (1974)
# [2] = system: Enterobacter cloacae P-2540; assay: In vitro antibacterial activity (MIC), Enterobacter cloacae P-2540; format: cell-based
# Text: as §1
# [3] = system: Staphylococcus aureus No. 50774; assay: in vivo efficacy against systemic infection in mice, Staphylococcus aureus No. 50774; conditions: NO.50774, in Mus musculus, po, 336 h
# Procedure: Male mice (ddY) weighing about 20 g
# Intravenous infection with (about
# 5 × 10^8 cells/mouse) of a bacterial
# (§2) Twice, about 5 minutes and 6 hours after infection.
# [4] = in vivo; conditions: for LD50 at 168 h: mouse, in vivo, po
# Procedure: The number of dead mice was counted after 7 days, and the value of median lethal dose (LD50, mg/kg) was calculated in accordance with the Behrens-Kaerber method.
# [5] = system: Staphylococcus aureus No. 50774; assay: In vitro antibacterial activity (MIC), Staphylococcus aureus No. 50774; format: cell-based
# Text: as §1
# [6] = system: Salmonella typhimurium 8-9; assay: In vitro antibacterial activity (MIC), Salmonella typhimurium 8-9; format: cell-based; conditions: Salmonella enterica, read-out: minimum inhibitory concentration (MIC)
# Text: as §1
# [7] = system: Serratia marcescens IFC 3736; assay: In vitro antibacterial activity (MIC), Serratia marcescens IFC 3736; format: cell-based; conditions: IFC3736; Serratia marcescens IFC 3736; read-out: minimum inhibitory concentration (MIC)
# Text: as §1
# [8] = system: Proteus morganii Kono; assay: In vitro antibacterial activity (MIC), Proteus morganii Kono; format: cell-based; conditions: Morganella morganii, read-out: minimum inhibitory concentration (MIC)
# Text: as §1
# [9] = system: Shigella flexneri 4a P-330; assay: In vitro antibacterial activity (MIC), Shigella flexneri 4a P-330; format: cell-based; conditions: 4AP330, read-out: minimum inhibitory concentration (MIC)
# Text: as §1
# [10] = system: Escherichia coli NIHJ JC-2; assay: In vitro antibacterial activity (MIC), Escherichia coli NIHJ JC-2; format: cell-based; conditions: Escherichia coli, NIHJJC2, read-out: minimum inhibitory concentration (MIC)
# Text: as §1
# [11] = system: Escherichia coli P-140a; assay: In vitro antibacterial activity (MIC), Escherichia coli P-140a; format: cell-based; conditions: Escherichia coli, read-out: minimum inhibitory concentration (MIC)
# Text: as §1
# [12] = system: Proteus mirabilis P-2381; assay: In vitro antibacterial activity (MIC), Proteus mirabilis P-2381; format: cell-based
# Text: as §1
# [13] = system: Escherichia coli P-5101; assay: In vitro antibacterial activity (MIC), Escherichia coli P-5101; format: cell-based
# Text: as §1
# [14] = system: Pseudomonas aeruginosa No. 12; assay: in vivo efficacy against systemic infection in mice, Pseudomonas aeruginosa No. 12; conditions: NO.12, in Mus musculus, po, 168 h
# Procedure: Male mice (ddY) weighing about 20 g
# (3) Pseudomonas aeruginosa No. 12;
# (about 5 × 10^3 cells/mouse) of a bacterial
# (§3) suspension in trypto-soy broth with 4% mucin.
# as §2
# The numerals in the table show ED50 (mg/kg). ED50 values were
# [15] = system: Pseudomonas aeruginosa No. 12; assay: In vitro antibacterial activity (MIC), Pseudomonas aeruginosa No. 12; format: cell-based; conditions: Pseudomonas aeruginosa No. 12; read-out: minimum inhibitory concentration (MIC)
# Text: as §1
# [16] = system: Gram-positive bacteria and Gram-negative bacteria; assay: In vitro antibacterial activity against 19 strains of bacteria (overall); format: cell-based; conditions: comparisons are with compounds of the invention
# Text: as §1
# [17] = system: Shigella flexneri 2a; assay: In vitro antibacterial activity (MIC), Shigella flexneri 2a; format: cell-based; conditions: read-out: minimum inhibitory concentration (MIC)
# Text: as §1
# [18] = system: Salmonella enteritidis No. 1891; assay: In vitro antibacterial activity (MIC), Salmonella enteritidis No. 1891; format: cell-based; conditions: Salmonella enterica, ENTERITIDIS, read-out: minimum inhibitory concentration (MIC)
# Text: as §1
# [19] = system: Escherichia coli P-5101; assay: in vivo efficacy against systemic infection in mice, Escherichia coli P-5101; conditions: P5101, in Mus musculus, po, 168 h
# Procedure: Male mice (ddY) weighing about 20 g
# Intraperitoneal infection with (about
# 9 × 10^6 cells/mouse) of a bacterial
# as §3, §2
# [20] = system: Staphylococcus aureus 209P JC-1; assay: In vitro antibacterial activity (MIC), Staphylococcus aureus 209P JC-1; format: cell-based; conditions: Staphylococcus aureus 209P JC-1; read-out: minimum inhibitory concentration (MIC)
# Text: as §1
# [21] = system: Klebsiella pneumoniae No. 13; assay: In vitro antibacterial activity (MIC), Klebsiella pneumoniae No. 13; format: cell-based; conditions: Klebsiella pneumoniae No. 13; read-out: minimum inhibitory concentration (MIC)
# Text: as §1
# [22] = system: Streptococcus pyogenes 65A; assay: In vitro antibacterial activity (MIC), Streptococcus pyogenes 65A; format: cell-based; conditions: read-out: minimum inhibitory concentration (MIC)
# Text: as §1
# [23] = system: Corynebacterium pyogenes C-21; assay: In vitro antibacterial activity (MIC), Corynebacterium pyogenes C-21; format: cell-based; conditions: Rhodococcus (subgen. Prescottella) equi, C21; Corynebacterium pyogenes C-21; read-out: minimum inhibitory concentration (MIC)
# Text: as §1
# [24] = system: Pseudomonas aeruginosa Tsuchijima; assay: In vitro antibacterial activity (MIC), Pseudomonas aeruginosa Tsuchijima; format: cell-based; conditions: Pseudomonas aeruginosa Tsuchijima; read-out: minimum inhibitory concentration (MIC)
# Text: as §1
# [25] = system: Gram-positive and Gram-negative bacteria; assay: in vivo therapeutic efficacy against systemic infections in mice (overall); set-up: species or system mice (ddY); conditions: systemic infections with Gram-positive and Gram-negative bacteria
Compound,MIC [1],ED50 [3],LD50 at 168 h [4],MIC [7],MIC [8],MIC [9],MIC [10],MIC [11],ED50 [14],MIC [15],antibacterial activity (in words) [16],MIC [17],MIC [18],ED50 [19],MIC [20],MIC [21],MIC [23],MIC [24],other results
"CCn1cc(C(=O)O)c(=O)c2cc(F)c(N3CCN(C)CC3)nc21 [Compound B, 1-Ethyl-6-fluoro-1,4-dihydro-7-(4-methyl-1-piperazinyl)-4-oxo-1,8-naphthyridine-3-carboxylic acid]",12.5 µg/mL,4.8 mg/kg,210 mg/kg,1.56 µg/mL,0.78 µg/mL,0.78 µg/mL,0.39 µg/mL,0.39 µg/mL,10.6 mg/kg,3.13 µg/mL,equivalent or higher antibacterial activity,0.39 µg/mL,0.1 µg/mL,1.2 mg/kg,1.56 µg/mL,0.39 µg/mL,1.56 µg/mL,1.56 µg/mL,"MIC ([2]; P2540, Enterobacter cloacae P-2540, read-out: minimum inhibitory concentration (MIC)): 0.39 µg/mL; toxicity (in words) ([4]; acute, oral, mice): extremely high toxicity; MIC ([5]; Staphylococcus aureus No. 50774, read-out: minimum inhibitory concentration (MIC)): 1.56 µg/mL; MIC ([6]; Salmonella typhimurium 8-9): 0.2 µg/mL; MIC ([12]; P2381, Proteus mirabilis P-2381, read-out: minimum inhibitory concentration (MIC)): 1.56 µg/mL; MIC ([13]; P5101, Escherichia coli P-5101, read-out: minimum inhibitory concentration (MIC)): 0.2 µg/mL; MIC ([22]; Streptococcus pyogenes 65A): 6.25 µg/mL"
"CCn1cc(C(=O)O)c(=O)c2cc(Cl)c(N3CCNCC3)cc21 [Compound C, 6-Chloro-1-ethyl-1,4-dihydro-4-oxo-7-(1-piperazinyl)quinoline-3-carboxylic acid]",6.25 µg/mL,~100 mg/kg,> 2000 mg/kg,0.78 µg/mL,0.39 µg/mL,0.2 µg/mL,0.39 µg/mL,0.2 µg/mL,> 100 mg/kg,3.13 µg/mL,clearly inferior,0.39 µg/mL,0.2 µg/mL,~15 mg/kg,0.78 µg/mL,0.78 µg/mL,1.56 µg/mL,3.13 µg/mL,"MIC ([2]; Enterobacter cloacae, P2540, read-out: minimum inhibitory concentration (MIC)): 0.2 µg/mL; MIC ([5]; Staphylococcus aureus, NO.50774, read-out: minimum inhibitory concentration (MIC)): 1.56 µg/mL; MIC ([6]; TYPHIMURIUM): 0.2 µg/mL; MIC ([12]; Proteus mirabilis, P2381, read-out: minimum inhibitory concentration (MIC)): 0.39 µg/mL; MIC ([13]; Escherichia coli, P5101, read-out: minimum inhibitory concentration (MIC)): 0.2 µg/mL; therapeutic effect / in vivo antibacterial activity (in words) [25]: clearly inferior; MIC ([22]; Streptococcus pyogenes, 65A): 6.25 µg/mL"
